Source: BindingDB's records for doi:10.1016/j.bmcl.2012.03.106 (Syngenta Crop Protection Muenchwilen, 2012)

Test: Displacement of [3H]-Tritium-N-(4-chloro-2-methyl-6-(methylcarbamoyl)phenyl)-1-(3-chloropyridin-2-yl)-3-(trifluoromethyl)-1H-pyrazole-5-carboxamide from Myzus persicae (green peach aphid) ryanodine receptor
`CNC(=O)c1cc(C#N)cc(C)c1NC(=O)c1cc(Br)nn1-c1ncccc1Cl` [CYANTRANILIPROLE] gave an IC50 of 2.11 µM. In the case of `Cc1cc(C#N)cc(C(=O)NC(C)(C)CS(C)(=N)=O)c1NC(=O)c1cc(Br)nn1-c1ncccc1Cl` (stereo unspecified), the IC50 is reported as 18.5 µM. With `Cc1cc(C#N)cc(C(=O)NC(C)(C)CS(C)(=O)=NC#N)c1NC(=O)c1cc(Br)nn1-c1ncccc1Cl` (stereo unspecified) the IC50 was 8.09 µM. Work on `CNC(=O)c1cc(Cl)cc(C)c1NC(=O)c1cc(Br)nn1-c1ncccc1Cl` [3-bromo-N-(4-chloro-2-methyl-6-(methylcarbamoyl)phenyl)-1-(3-chloropyridin-2-yl)-1H-pyrazole-5-carboxamide] yielded an IC50 of 4.13 µM. Compound `Cc1cc(C(F)(C(F)(F)F)C(F)(F)F)ccc1NC(=O)c1cccc(I)c1C(=O)NC(C)(C)CS(C)(=O)=O` [CHEBI:38798] has an IC50 of 83.5 µM. For `Cc1cc(Cl)cc(C(=O)NC(C)(C)CS(C)(=O)=NC#N)c1NC(=O)c1cc(C(F)(F)F)nn1-c1ncccc1Cl` (stereo unspecified), the IC50 was 4.86 µM.
